Data: ChEMBL document CHEMBL2331116, “Microbial transformation of acetyl-11-keto-β-boswellic acid and their inhibitory activity on LPS-induced NO production” (Bioorg Med Chem Lett, 2013)

Key:
[1] = test system: RAW264.7; test: Antiinflammatory activity in mouse RAW264.7 cells assessed as inhibition of LPS-induced NO production after 24 hrs; assay type: functional, cell-based; conditions: RAW264.7, 24 h
[2] = Cytotoxicity against mouse RAW264.7 cells assessed as cell viability at 100 uM after 24 hrs by MTT assay relative to control; assay type: cell-based; conditions: read-out: Activity

Compound | IC50 [1] | viability at 24 h, 100 µM [2]
CC(=O)O[C@@H]1CC[C@@]2(C)[C@@H](C[C@H](O)[C@]3(C)[C@@H]2C(=O)C=C2[C@@H]4[C@@H](C)[C@H](C)CC[C@]4(C)CC[C@]23C)[C@@]1(C)C(=O)O | 1.5 µM | 84.2%
CC(=O)O[C@@H]1CC[C@@]2(C)[C@@H](C[C@H](O)[C@]3(C)[C@@H]2C(=O)C=C2[C@@H]4[C@@H](C)[C@H](C)C[C@H](O)[C@]4(C)CC[C@]23C)[C@@]1(C)C(=O)O | 76.8 µM | 89.8%
CC(=O)O[C@@H]1CC[C@@]2(C)[C@@H](C[C@H](O)[C@]3(C)[C@@H]2C(=O)C=C2[C@@H]4[C@@H](C)[C@H](C)[C@@H](O)C[C@]4(C)C[C@H](O)[C@]23C)[C@@]1(C)C(=O)O | > 100 µM | 103%
CN(C)c1ccc(O)c2c1C[C@H]1C[C@H]3[C@H](N(C)C)C(O)=C(C(N)=O)C(=O)[C@@]3(O)C(O)=C1C2=O [MINOCYCLINE] | – | 100%
CC(=O)O[C@@H]1CC[C@@]2(C)[C@@H](CC[C@]3(C)[C@@H]2C(=O)C=C2[C@@H]4[C@@H](C)[C@H](C)CC[C@]4(C)CC[C@]23C)[C@@]1(C)C(=O)O [AKBA] | 15.6 µM | 81.2%
CC(=O)O[C@@H]1CC[C@@]2(C)[C@@H](C[C@H](O)[C@]3(C)[C@@H]2C(=O)C=C2[C@@H]4[C@@H](C)[C@H](C)CC[C@]4(C)[C@H](O)C[C@]23C)[C@@]1(C)C(=O)O | 10.6 µM | 98.1%
CC(=O)O[C@@H]1CC[C@@]2(C)[C@@H](C[C@H](O)[C@]3(C)[C@@H]2C(=O)C=C2[C@@H]4[C@@H](C)[C@H](C)CC[C@]4(C)C[C@H](O)[C@]23C)[C@@]1(C)C(=O)O | > 100 µM | 108%
CC(=O)O[C@@H]1CC[C@@]2(C)[C@@H](CC[C@]3(C)[C@@H]2C(=O)C=C2[C@@H]4[C@@H](C)[C@H](C)[C@@H](O)C[C@]4(C)C[C@H](O)[C@]23C)[C@@]1(C)C(=O)O | > 100 µM | 134%
CC(=O)O[C@@H]1CC[C@@]2(C)[C@@H](C[C@H](O)[C@]3(C)[C@@H]2C(=O)C=C2[C@@H]4[C@@H](C)[C@H](C)[C@@H](O)C[C@]4(C)CC[C@]23C)[C@@]1(C)C(=O)O | 87.7 µM | 104%
